Reference: the supplement of paper PMC10307832

Tests used:
Test in all cases: relative viability (nuclei count vs DMSO), 5 days (fraction); higher = more cells survive
[1] = compound: CC1=CC(=C(N1C2=CC=C(C=C2)Cl)C)C(=O)CN3CCCCC3 [IU1-47] + Nc1nc2[nH]cc(CCc3ccc(C(=O)N[C@@H](CCC(=O)O)C(=O)O)cc3)c2c(=O)[nH]1 [Pemetrexed] (partner 0.2 µM)
Outline: (§1)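 Lung cancer cell lines, seeded in 1536-well plates, were treated the following day by pin tool with a single drug or with five library-drug doses (not always all listed) in √10 steps on top of a fixed anchor-drug dose. Cells were fixed and nuclei stained in one step after 5 days, and nuclei were counted. Relative viability is the nuclei count for treated wells divided by that for vehicle wells, reported as medians of duplicate plates.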

[2] = compound: Cc1nc(C(=O)NCC(=O)O)c(O)c2ccc(Oc3ccccc3)cc12 [FG-4592] + N=C(N)NC(=N)NCCc1ccccc1 [Phenformin] (partner 250 µM)
Outline: as §1

[3] = compound: CC1=CC(=C(N1C2=CC=C(C=C2)Cl)C)C(=O)CN3CCCCC3 [IU1-47] + NC(=O)Nc1cc(-c2cccc(F)c2)sc1C(=O)N[C@H]1CCCNC1 [AZD7762] (partner 0.2 µM)
Outline: as §1

[4] = compound: CC1=CC(=C(N1C2=CC=C(C=C2)Cl)C)C(=O)CN3CCCCC3 [IU1-47] + Cc1cc(Nc2cc(N3CCN(C)CC3)nc(Sc3ccc(NC(=O)C4CC4)cc3)n2)n[nH]1 [Tozasertib] (partner 0.1 µM)
Outline: as §1

Cell Line	relative viability ([1]; first compound 0.08 µM)	relative viability ([1]; first compound 0.253 µM)	relative viability ([1]; first compound 0.8 µM)	relative viability ([1]; first compound 2.53 µM)	relative viability ([1]; first compound 8 µM)	relative viability ([2]; first compound 0.08 µM)	relative viability ([2]; first compound 0.253 µM)	relative viability ([2]; first compound 0.8 µM)	relative viability ([2]; first compound 2.53 µM)	relative viability ([2]; first compound 8 µM)	relative viability ([3]; first compound 0.08 µM)	relative viability ([3]; first compound 0.253 µM)	relative viability ([3]; first compound 0.8 µM)	relative viability ([3]; first compound 2.53 µM)	relative viability ([3]; first compound 8 µM)	relative viability ([4]; first compound 0.08 µM)	relative viability ([4]; first compound 0.253 µM)	relative viability ([4]; first compound 0.8 µM)	relative viability ([4]; first compound 2.53 µM)	relative viability ([4]; first compound 8 µM)
NCI-H1651	0.587	0.559	0.616	0.311	0.451	0.32	0.316	0.335	0.355	0.421	0.479	0.498	0.529	0.316	0.418	0.717	0.58	0.753	0.72	0.762
NCI-H1666	0.894	0.839	0.888	0.873	0.841	0.611	0.518	0.613	0.377	0.562	0.866	0.86	0.854	0.803	0.815	0.563	0.548	0.593	0.575	0.595
NCI-H1734	0.454	0.415	0.446	0.443	0.463	0.398	0.387	0.343	0.377	0.354	0.639	0.481	0.487	0.383	0.517	0.299	0.252	0.264	–	0.235
NCI-H1755	0.434	0.439	0.825	0.454	0.445	0.588	0.566	0.556	0.581	0.627	0.429	0.557	0.57	0.443	0.377	0.583	0.687	0.612	0.631	0.563
NCI-H1793	0.691	–	0.802	0.798	0.629	0.357	0.273	–	0.307	0.36	0.716	–	0.516	0.319	0.338	0.346	0.319	0.296	–	0.299
NCI-H1915	0.586	0.515	0.46	0.562	0.553	0.327	0.362	0.387	0.354	0.398	0.712	0.71	0.671	0.655	0.703	0.472	0.467	0.499	–	0.359
NCI-H1944	0.652	0.778	0.751	0.734	0.58	0.194	0.187	0.185	0.18	0.2	0.794	0.612	0.601	0.445	0.464	0.231	0.248	0.265	0.283	0.265
NCI-H1975	0.278	0.289	0.297	0.299	0.255	0.384	0.399	0.369	0.384	0.396	0.698	0.766	0.728	0.797	0.756	0.925	0.85	0.719	0.882	0.487
NCI-H1993	0.631	0.588	0.672	0.346	0.482	0.513	0.427	0.5	0.421	0.507	0.682	0.763	0.769	0.781	0.85	0.525	0.619	0.645	0.602	0.54
NCI-H2085	0.925	0.818	0.846	0.83	0.885	0.646	0.618	0.536	0.592	0.647	0.983	1.02	0.997	0.73	1.02	0.903	0.79	0.705	0.835	0.774
NCI-H2087	0.668	0.637	0.693	0.716	0.556	0.519	0.416	0.454	0.493	0.529	1.45	1.29	1.53	1.31	1.24	0.225	0.224	0.287	–	0.241
NCI-H2126	0.69	0.741	0.704	0.49	0.733	0.554	0.5	0.51	0.492	0.461	1.01	1.08	1.14	0.712	0.837	0.905	0.866	0.818	–	0.737
NCI-H2170	0.28	0.362	0.278	0.264	0.258	0.381	0.359	0.494	0.43	0.503	1.04	1.05	0.985	0.76	0.976	0.714	0.786	0.762	0.892	0.676
NCI-H2342	0.794	0.782	0.942	0.825	0.693	0.521	0.531	0.519	0.613	0.469	0.526	0.588	0.57	0.507	0.486	0.493	0.608	0.602	0.512	0.594
NCI-H2347	0.436	0.39	0.447	0.395	0.419	0.284	–	0.376	0.5	0.441	0.78	0.845	0.865	0.79	0.621	0.561	0.518	0.632	0.51	0.445
NCI-H2405	1.05	1.1	1.05	1.02	1.09	0.282	–	0.382	0.342	0.42	0.795	0.804	0.853	0.815	0.739	0.753	0.801	0.755	0.735	0.692
NCI-H3122	0.197	0.206	0.204	0.218	0.205	0.42	0.349	0.398	0.334	0.385	1.08	1.08	1.02	1.02	0.88	0.442	0.423	0.371	0.46	0.331
